What was measured:
3T3-L1 adipocytes [1] = experiment: Intracellular triglyceride concentration (TG assay kit) in 3T3-L1 adipocytes; format: cell-based, mouse
Protocol: In order to confirm whether or not azelaic acid induces triglyceride hydrolysis in adipocytes by activating a cAMP-PKA-HSL signaling pathway, the adipocytes were directly treated with azelaic acid, and concentrations of intracellular lipids were measured. […] Then, a concentration of triglycerides was measured using a TG assay kit (BioVision, California, U.S.) and a concentration of cholesterol was measured using an Amplex Red cholesterol assay kit (Invitrogen, California, U.S.).

3T3-L1 adipocytes [2] = experiment: cAMP assay (ELISA kit) in 3T3-L1 adipocytes; format: cell-based, mouse; details: 50 μM azelaic acid, 18 hours
Protocol: Therefore, changes in concentrations of cAMP, IP-one (metabolite of IP3), and calcium, which are second messengers by azelaic acid corresponding to the Olfr544 ligand, in 3T3-L1 adipocytes were measured. Since IP3 has low stability to thereby be easily decomposed to IP-one, an amount of intracellular IP-One (metabolite of IP3) was quantified instead of IP3.
cAMP assay uses the principle to estimate a production amount of cAMP corresponding to a second messenger of a GPCR receptor activated by a ligand using a cAMP standard calibration curve. A 96-well plate included in a cAMP assay ELISA kit (Enzo Life science, New York, U.S.) was coated with a G×R IgG antibody, and after cAMP of a blue solution for obtaining the standard calibration curve was bound to alkaline phosphatase, the color of the blue solution was changed to yellow by a rabbit antibody. When alkaline phosphatase was activated by adding a pNpp substrate to a well bound to cAMP, a color change occurred, such that the concentration of cAMP may be measured at a wavelength of 405 nm using colorimetric analysis. In the present experiment, 1×10^4 3T3-L1 adipocytes were seeded in each well of the 96-well plate and differentiated, and then treated with 50 μM azelaic acid and 1 μM Foskolin corresponding to a positive control for 18 hours. Then, the concentration of cAMP was measured by the method described above.

O=C(O)CCCCCCCC(=O)O [azelaic acid, nonanedioic acid]
concentration of intracellular triglycerides decreased as compared to a control (3T3-L1 adipocytes [1]; 3T3-L1 adipocytes, 50 μM azelaic acid, 2 hours): 61.5%
concentration of triglycerides in the 3T3-L1 adipocytes (3T3-L1 adipocytes [1]; azelaic acid 25 or 50 μM): significantly and concentration-dependently decreased
concentration of intracellular cAMP (3T3-L1 adipocytes [2]): significantly increased
